Test results as given in ChEMBL document CHEMBL5390280, “Design, Synthesis, and Biological Evaluation of an Orally Bioavailable, Potent, and Selective ROCK2 Inhibitor for Psoriasis Treatment” (J Med Chem, 2023).
Active and inactive are the calls of the source. The calls are words filed in the database; no cut-off is given here.

Experiments:
HaCaT [1] = experiment: Anti-psoriasis effect in KGF-stimulated human HaCaT cells assessed as decrease in pSTAT3 level at 2 to 5 uM incubated for 24 hrs by Western blot analysis; format: functional, cell-based; details: dose 2-5 µM
[2] = Lipophilicity, log D of the compound at pH 7.4; format: physicochemical; details: buffer
Mus musculus [3] = experiment: Anti-inflammatory activity in Balb/c mouse model of IMQ-induced skin inflammation assessed as reduction in skin roughness at 20 to 80 mg/kg, po administered daily for 7 days; format: functional, organism-based; details: dose 20-80 mg/kg, time 7.0 day
[4] = Toxicity in Balb/c mouse model of IMQ-induced skin inflammation assessed as reduction in spleen index administered orally daily for 7 days; format: tissue-based; details: in vivo, po, 168 h, dose 40-80 mg/kg, time 7 day
Mus musculus [5] = experiment: Anti-inflammatory activity in Balb/c mouse model of IMQ-induced skin inflammation assessed as decrease in serum IL-17F level at 40 mg/kg, po administered daily for 7 days by IHC analysis; format: functional, organism-based; details: time 7.0 day
Mus musculus [6] = experiment: In vivo inhibition of ROCK2 in Balb/c mouse model of IMQ-induced skin inflammation assessed as decrease in pSTAT3+ cells in dorsal skin at 20 to 80 mg/kg, po administered daily for 7 days by high power field microscopy; format: functional, organism-based; details: dose 20-80 mg/kg, time 7.0 day
HaCaT [7] = experiment: Anti-psoriasis effect in KGF-stimulated human HaCaT cells assessed as decrease in elastin level at 2 to 5 uM incubated for 24 hrs by Western blot analysis; format: functional, cell-based; details: dose 2-5 µM
Mus musculus [8] = experiment: Anti-inflammatory activity in Balb/c mouse model of IMQ-induced skin inflammation assessed as decrease in IL-17F mRNA level in dorsal skin at 20 to 40 mg/kg, po administered daily for 7 days by RT-qPCR analysis; format: functional, organism-based; details: dose 20-40 mg/kg, time 7.0 day
[9] = Half life in Balb/c mouse at 40 mg/kg, po measured for 0.08 to 24 hrs by LC-MS/MS analysis; format: ADME, organism-based; details: in vivo, time 0.08-24 hrs
[10] = Tmax in Balb/c mouse at 40 mg/kg, po measured for 0.08 to 24 hrs by LC-MS/MS analysis; format: ADME, organism-based; details: in vivo, time 0.08-24 hrs
Mus musculus [11] = experiment: Anti-inflammatory activity in Balb/c mouse model of IMQ-induced skin inflammation assessed as decrease in IL-22 mRNA level in dorsal skin at 20 to 40 mg/kg, po administered daily for 7 days by RT-qPCR analysis; format: functional, organism-based; details: dose 20-40 mg/kg, time 7.0 day
Mus musculus [12] = experiment: Anti-inflammatory activity in Balb/c mouse model of IMQ-induced skin inflammation assessed as decrease in IL-17A mRNA level in dorsal skin at 20 to 40 mg/kg, po administered daily for 7 days by RT-qPCR analysis; format: functional, organism-based; details: dose 20-40 mg/kg, time 7.0 day
Mus musculus [13] = experiment: Anti-inflammatory activity in Balb/c mouse model of IMQ-induced skin inflammation assessed as decrease in KGF mRNA level in dorsal skin at 40 to 80 mg/kg, po administered daily for 7 days by RT-qPCR analysis; format: functional, organism-based; details: dose 40-80 mg/kg, time 7.0 day
[14] = Volume of distribution at steady state in Balb/c mouse at 10 mg/kg, iv measured for 0.08 to 24 hrs by LC-MS/MS analysis; format: ADME, organism-based; details: in vivo, time 0.08-24 hrs, read-out: Vdss

With `Cc1cc(=O)n(-c2cccc(CN[C@H]3CCC[C@H](Nc4ccc5[nH]ncc5c4)C3)c2)cc1F` as the compound, how does the Activity (HaCaT [1]) read?
The Activity was “Active”.

What about the logD [2] of the same compound?
Its logD is 0.84.

What about the Activity (Mus musculus [3]) of the same compound?
Its Activity is “Active”.

And the Activity [4]?
The Activity was “Dose-Dependent Effect”.

And the Activity (Mus musculus [5])?
Its Activity is “Active”.

And the Activity (Mus musculus [6])?
The Activity was “Active”.

What about the Activity (HaCaT [7]) of the same compound?
Its Activity is “Active”.

And the Activity (Mus musculus [8])?
Its Activity is “Active”.

What about the half-life [9] of the same compound?
The half-life was 75.6 min.

What about the Tmax [10] of the same compound?
The Tmax was 15 min.

What about the Activity (Mus musculus [11]) of the same compound?
Its Activity is “Active”.

And the Activity (Mus musculus [12])?
The Activity was “Active”.

And the Activity (Mus musculus [13])?
Its Activity is “Active”.

And the Vd [14]?
The Vd was 8.63 L/kg.
